The test system of data set [1] is human colon cancer RKO cell line. The experiment in a line: Cell proliferation assay (WST-1) in RKO cells. The format is cell-based. The conditions noted are these: 6 hr exposure then 96 hr growth, mean ± S.D., at least 3 experiments. As for the experimental part: RKO cells were plated in 96-well plates at a density of 800 cells/well. On the following day, cells were incubated with ssiRNA/LF2000 complexes for 6 hr, after which time, the growth medium was replaced, and cells were grown for an additional 96 hr. Similarly, RKO cells were treated with FdU (#F0503, Sigma) for 6 hr followed by medium replacement and then allowed to grow for an additional 96 hr. Cell proliferation/viability was quantified by the WST-1 assay (Roche; Indianapolis, Ind.).
For orientation: Tetrazolium dyes change colour on reduction, which living cells bring about.

Data set [2] relates to TS mRNA sequence in opposite orientation targeted by the sense (passenger) strand. Briefly: Luciferase assay, vector with TS6 target site for the sense strand. The format is cell-based, human. The following applies: RKO cells, ssiRNA 0.1 nM, 24 hr. As for the experimental part:
(§1) FIG. 3 illustrates the effect of 3′-end modification on ssiRNA strand selection. RKO cells were transfected with luciferase vectors (including the TS6 target site for either the antisense (open bars) or sense strand (hatched bars)) in combination with ssiRNAs containing different 3′-end overhangs. After 24 hr, cells were harvested and luciferase activity was determined as described in the Materials and Methods section. Firefly/renilla luciferase activity from vector-alone transfection was normalized to 100%. All values represent the mean±S.D. from at least 4 separate experiments performed in duplicate;
(§2) FIGS. 4A-C illustrate the effect of 3′-end dU incorporation on ssiRNA strand selection. RKO cells were transfected with various TS6 ssiRNAs (1 nM) for 6 hr. After an additional 48 hr, cells were harvested for immunoblot (A) and qPCR (B) analysis. (C) Luciferase vectors (containing the siRNA target site for either the sense or antisense strand) were transfected into RKO cells in combination with different ssiRNAs. After 24 hr, cells were harvested and luciferase activity was determined as described in the Materials and Methods section. Luciferase activity from vector-alone transfection was normalized to 100%. All values represent the mean±S.D. from at least 4 separate experiments performed in duplicate;
(§3) A DNA oligonucleotide corresponding to the TS6 siRNA target sequence (TS mRNA nt 1058-1077: 5′-[…]-3′- SEQ ID NO: 23) was annealed to its complimentary antisense sequence and ligated into the pGL3-Promoter plasmid (Promega; Madison, WI) at restriction sites Hind III and Nco I. The luciferase mRNA expressed from this plasmid was targeted by the antisense strand of TS6 siRNA. A second plasmid was constructed with the TS mRNA sequence inserted in the opposite orientation so that it could be targeted by the sense or passenger strand of TS6 siRNA. […] After 24 hr, cells were washed with PBS, lysed in 1×PLG buffer, and firefly and renilla luciferase levels were determined by the Dual-Luciferase™ Reporter Assay system (Promega). […]

The next data set concerns GC3/TK− cells. The experiment in a line: Cell proliferation (WST-1) in thymidine kinase-deficient GC3/TK− cells. The format is cell-based, human. The conditions noted are these: 6 hr transfection, additional 5 days. As for the experimental part:
FIGS. 2A-B illustrate the effect of TK knockdown on the cytotoxicity of the FdU-modified ssiRNA. (A) RKO cells were transfected with 1 nM TK siRNA (lanes 3 and 4) or Mis-dU/dA (lane 5). After 6 hr, the medium was replaced with fresh medium. On the following day, cells were transfected with TS6-FdU/dA ssiRNA (1 nM) for 6 hr (lanes 2, 4, and 5) after which time, cells were harvested for immunoblot analysis. RKO cells were treated with 5-fluorouracil (5 nM) for 6 hr before harvesting (lane 6). (B) GC3/TK− cells were transfected with various concentrations of TS6-dU/dA or TS6-FdU/dA ssiRNA. After 6 hr, the medium was replaced and after an additional 5 days, cell proliferation was determined with the WST-1 assay;
The human colon cancer RKO cell line, originally obtained from ATCC, has been previously well-characterized and was maintained in RPMI-1640 (Invitrogen; Carlsbad, Calif.) with 10% (v/v) dialyzed fetal bovine serum at 37° C. in a humidified incubator with 5% CO2 (Reference 11). The thymidine kinase-deficient GC3/TK− cells were a gift from Dr. Janet Houghton (Reference 18). Cells were routinely authenticated by morphology and growth curve analysis. […]
RKO cells were plated in 96-well plates at a density of 800 cells/well. […] Cell proliferation/viability was quantified by the WST-1 assay (Roche; Indianapolis, Ind.).

For data set [3], the system named is TS6 siRNA target sequence (TS mRNA nt 1058-1077) targeted by the antisense strand. The experiment in a line: Luciferase assay, vector with TS6 target site for the antisense strand. The format is cell-based, human. The conditions noted are these: RKO cells, ssiRNA 0.1 nM, 24 hr. The protocol:
as §1, §2, §3

d = 2'-deoxy (DNA); r = 2'-OH (RNA)

Consider “TS6-dU/dA: unmodified TS-targeted ssiRNA, 5 dU on 3′-end of sense strand, 5 dA on 3′-end of antisense strand; SEQ ID NO: 3 and 4 (sense GGAUAUUGUCAGUCUUUAGGUUUUU; antisense CCUAAAGACUGACAAUAUCCAAAAA; sense: sugars from the 5' end r20 d5, backbone and T or U not given here; antisense: sugars from the 5' end r20 d5, backbone not given here)”, for which the values for the half-inhibitory concentration (IC50) (in data set [1]; with GC3/TK− cells) were 81.9 nM and 51.4 ± 27.8 nM, respectively. For the same substance, the “sense strand targeting, luciferase (in words)” value in data set [2] is “significantly reduced”. Further, in data set [3], the “antisense strand targeting, luciferase (in words)” value was “maintained”.

A word on the IC50: it is the concentration that inhibits the measured activity by half. The low end stands for inhibition by little substance, the high end for a need for much substance.

The record behind these values is US9096853B2, “Modified siRNA molecules incorporating 5-fluoro-2′-deoxyuridine residues to enhance cytotoxicity” (U.S. Department of Veterans Affairs, priority 2012, dated 2015).
